Data taken from patent US6706721B1, “N-(3-ethynylphenylamino)-6,7-bis(2-methoxyethoxy)-4-quinazolinamine mesylate anhydrate and monohydrate” (OSI Pharmaceuticals, Inc., priority 1998, dated 2004).

Experiments:
hygroscopicity = format: physicochemical
[1] = resistance to thermal degradation; format: physicochemical

C#Cc1cccc(Nc2ncnc3cc(OCCOC)c(OCCOC)cc23)c1.CS(=O)(=O)O [Polymorph C, N-(3-ethynylphenyl)-6,7-bis(2-methoxyethoxy)-4-quinazolinamine Mesylate Salt]
hygroscopicity (hygroscopicity): essentially non-hygroscopic
thermal degradation [1]: resistance to thermal degradation
